From PMC7287882, “Dual miRNases for Triple Incision of miRNA Target: Design Concept and Catalytic Performance” (Molecules, 2020)

Columns and labels:
[1] = format: in vitro ADME, bovine; conditions: serum
Method: Stability of miRNA-21-DC and miRNA-155-DC and corresponding ONs was carried out in reaction mixtures (90 µL) containing DCs or ONs at a concentration of 0.1 mg/mL in Dulbecco’s Modified Eagle Medium (DMEM) with 10% FBS at 37 °C for 24 h. Aliquots (10 μL) were taken after 0, 0.5, 1, 2, 4, 8, and 24 h of incubation. The reaction was stopped by adding 10 μL of 8 M urea, and the reaction mixture was immediately frozen in liquid nitrogen. DCs and ONs cleavage products were analyzed in 12% PAAG/8M urea. To identified products, gels were stained with the Stains-All dye and photographed using a gel documentation system.
Figure S12. Stability of Dual conju gat es (DCs) and corresponding Du al oligonucleotides (ONs)
targeted to miR-155 and miR-21 in cell medium DMEM supplemented with 10% FBS . Im a g e s
of the 12% PAAG/8M urea, stained with Stains-Alland kinetics of degradation of DCs and ONs .
Conjugates and oligonucleotides at a concentration of 0. 1 mg/mL were incubated in DMEM
supplemented with 10% FBS at 37 °C for 24 h.
(1 picture or pasted object on this page, not shown here)

miR-21_1 = assay: Ribonuclease activity assay, cleavage of modified miR-21_1; format: biochemical; conditions: miRNA 1 µM, DC 20 µM, 37 °C
Method: The ribonuclease activity of DCs was studied under two different buffer conditions: buffer (1) contained 50 mM Tris-HCl, pH 7.0, 200 mM KCl, 1 mM EDTA, which imitates intracellular conditions (e.g., pH and potassium ions concentration) and was used in a number of studies previously; and buffer (2) contained 20 mM Tris-HCl, pH 7.8, 40 mM KCl, 8 mM MgCl2, 1 mM DTT, 0.02 mg/mL BSA, which is recommended for in vitro reactions with RNase H (Figure 3 and Figure 4).
Despite the high binding affinity of all DCs to their matching miRNA targets, miR-21 was not cleaved by the corresponding Dual conjugate (Figure 3d). The most probable reason for this was the absence of the pyrimidine-A sites sensitive towards cleavage by this type of conjugates within the single-stranded “gap” formed upon binding to conjugate. In order to verify this hypothesis, we tested the cleavage of the modified miR-21 sequence (miRNA-21_1) containing 2 substitutions in the gap region (AGACU → AUACA) to generate C-A and U-A bonds. Such replacement, indeed, led to a noticeable cleavage of the miR-21_1 target with miR-21-targeting DC at the introduced U11-A12 and C13-A14 sites (Figure 3e) with the cleavage efficiency reaching 18% (Figure 3f, Table S2).
The reaction mixture (10 µL) contained 800 cpm (Cherenkov’s counting) of [^32P]-miRNA, 1 μM unlabeled miRNA, one of the conjugates at a concentration 10 or 20 μM and one of the buffers: 50 mM Tris-HCl, pH 7.0, 200 mM KCl, 1 mM EDTA–buffer (1) or 20 mM Tris-HCl, pH 7.8, 40 mM KCl, 8 mM MgCl2, 1 mM DTT, 0.02 mg/mL BSA–buffer (2). The mixture was incubated at 37 °C for 0–72 h and quenched by precipitation of RNA with 2% LiClO4 in acetone (90 µL). RNA was collected by centrifugation and dissolved in loading buffer (8 M urea, 0.025% bromophenol blue, 0.025% xylene cyanol). RNA cleavage products were analyzed in 18% PAAG/8M urea using TBE (100 mM Tris-borate, pH 8.3, 2 mM EDTA) as running buffer. To identify cleavage sites, an imidazole and T1-ladders produced by partial RNA cleavage with 2 M imidazole buffer (pH 7.0) and with RNase T1 [68], respectively, were run in parallel. To obtain quantitative data, gels were dried and analyzed using Molecular Imager FX. The total extent of RNA cleavage and the extent of RNA cleavage at each individual site were determined by using Quantity One software v.4.1 (Bio-Rad, Hercules, CA, USA).

Substance	half-life time (τ1/2) in 10% FBS [1] [h]	Total Cleavage (miR-21_1; buffer (1) 50 mM Tris-HCl pH 7.0, 200 mM KCl, 1 mM EDTA, 2 h)	Total Cleavage (miR-21_1; buffer (1) 50 mM Tris-HCl pH 7.0, 200 mM KCl, 1 mM EDTA, 24 h) [%]	Total Cleavage (miR-21_1; buffer (1) 50 mM Tris-HCl pH 7.0, 200 mM KCl, 1 mM EDTA, 48 h) [%]	Total Cleavage (miR-21_1; buffer (2) 20 mM Tris-HCl pH 7.8, 40 mM KCl, 8 mM MgCl2, 1 mM DTT, 0.02 mg/mL BSA, 6 h) [%]	Total Cleavage (miR-21_1; buffer (2) 20 mM Tris-HCl pH 7.8, 40 mM KCl, 8 mM MgCl2, 1 mM DTT, 0.02 mg/mL BSA, 24 h) [%]	Total Cleavage (miR-21_1; buffer (2) 20 mM Tris-HCl pH 7.8, 40 mM KCl, 8 mM MgCl2, 1 mM DTT, 0.02 mg/mL BSA, 48 h) [%]	rise of Kobs in buffer (2) compared to Kobs in buffer (1) (miR-21_1) [fold]
ACCCCTAT–linker 1–[GRLRL]2–linker 2–TTAGCATTAA [miRNA-155-DC, Dual oligonucleotide-peptide conjugate targeted to miR-155: catalytic peptide [LRLRG]2 between two 2-aminoadenine-containing oligodeoxyribonucleotides]	9.01 ± 0.5	–	–	–	–	–	–	–
TCAACATC–linker 1–[GRLRL]2–linker 2–GATAAGCTA [miRNA-21-DC, Dual oligonucleotide-peptide conjugate targeted to miR-21: catalytic peptide [LRLRG]2 between two 2-aminoadenine-containing oligodeoxyribonucleotides]	8 ± 0.1	0,7%	10	18	14	48	63	3
